From publication PMC11204085, “Molecular Characterization of Chemosensory Protein (CSP) Genes and the Involvement of AgifCSP5 in the Perception of Host Location in the Aphid Parasitoid Aphidius gifuensis” (International Journal of Molecular Sciences, 2024)
Entries after “also recorded” stand apart in the source; their conditions may differ. Where two headings read alike, the source gives them in different places.

Tests used:
AgifCSP5 = AgifCSP5 (Aphidius gifuensis, UniProt A0A3Q9ELG9); test: Fluorescence competitive binding assay with 1-NPN probe, wild-type AgifCSP5; conditions: for Binding affinity in words: wild-type AgifCSP5
Chain of AgifCSP5 (A0A3Q9ELG9 entry or part of it): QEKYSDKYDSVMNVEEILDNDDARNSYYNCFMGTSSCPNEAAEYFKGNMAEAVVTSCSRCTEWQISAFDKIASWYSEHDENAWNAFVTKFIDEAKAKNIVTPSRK
Source text: (§1) The candidate VOCs were mainly derived from various organic volatiles in wheat field habitats, referring to the compounds related to wheat plants and wheat aphids previously reported in a published paper by Jiang et al. in 2022 and 2023 [11, 12], including four groups of ligands: (1) aphid alarm pheromone components; (2) aphid sex pheromone; (3) green leaf volatiles of wheat; and (4) aphid-induced plant volatiles. […] The classes, CAS numbers, and purities of the chemicals used in these assays are listed in Appendix B. A Lengguang 970CRT spectrofluorimeter (Shanghai Jingmi, Shanghai, China) equipped with a 1 cm light path fluorimeter quartz cuvette was used to record the fluorescence intensity at room temperature with the following parameters: the excitation wavelength was set at 337 nm, the emission light wavelength was recorded at 350–500 nm, the high-speed scan mode was used, and the slit width was 10 nm. To determine the binding affinity of 1-NPN for AgifCSP5 proteins, a 2 µM protein solution diluted with 50 mM Tris-HCl at pH 7.4 was titrated with aliquots of the 1 mM 1-NPN stock solution to final concentrations ranging from 2–40 μM. Ligands bound to AgifCSP5 have a protein:ligand ratio of 1:1. Three independent repeats were carried out for all measurements. The binding affinity of AgifCSP5 for all ligands was calculated by the formula Ki = [IC50]/(1 + [1 − NPN]/K1-NPN), where the IC50 is defined as the concentration of a competitor that caused a 50% reduction in fluorescence intensity, K1-NPN is the dissociation constant (Kd) of the AgifCSP5/1-NPN complex, and [1-NPN] is the free concentration of 1-NPN.

Y75A mutant of AgifCSP5 = Y75A mutant of AgifCSP5 (Aphidius gifuensis, UniProt A0A3Q9ELG9, Y95A); test: Fluorescence competitive binding assay, Y75A mutant
Chain of Y75A mutant of AgifCSP5 (A0A3Q9ELG9 entry or part of it Y95A): as the sequence (A0A3Q9ELG9 entry or part of it) above, with Y75A counted along it
Source text: as §1
(§2) The mutagenesis primers for the targeted key amino acid residues were designed online (https://crm.vazyme.com/cetool/singlepoint.html (accessed on 24 December 2023)) according to the protocols of the Mut Express II Fast Mutagenesis Kit V2 (Vazyme, China) (Appendix B). Mutations were obtained by using Phanta Max Superfidelity DNA Polymerase with recombinant Plasmid pET-30a/AgifCSP5 plasmid DNA as a template. The plasmids of the mutants were verified by DNA sequencing. The mutated proteins were then expressed and purified, as described above. After protein concentration determination, the binding affinities of the mutants with ligands that previously bound well to the AgifCSP5 protein were verified using fluorescence competitive binding assays.

A. gifuensis adults = test: Y-tube olfactometer assay; format: in vivo, Aphidius gifuensis
Protocol: The behavioral responses of A. gifuensis to volatiles were tested using a Y-tube olfactometer (3.5 cm in diameter, arms 20 cm in length, and a stem 20 cm in length). The assay method was described by Guo et al., and minor improvements were made. The incoming air at a constant flow (300 mL/min) was first filtered using allochroic silica gel and activated carbon and then humidified with ultrapure water. The test compounds were serially diluted with paraffin oil to concentrations of 0.01, 0.1, 1, 10, and 100mg/mL. A total of 10 μL of tested volatile oil preloaded onto 1 cm diameter filter paper was placed in the chamber of the chosen treatment arm of the Y-tube olfactometer, and the same filter paper in another chamber of the chosen control arm was loaded with 10 μL of liquid paraffin. The choice of each adult introduced into the Y-tube stem within 5 min was recorded. The experiments were performed in a dark room at room temperature (25 ± 1 °C), and a light-emitting diode installed at 30 cm was used as the light source. In total, no fewer than 60 adults (at least 30 from each sex) were used in each treatment. After 5 insects were tested, we switched the positions of the volatile arm and the control arm, and after a total of 10 insects were tested, the Y-tube olfactometer was washed with 75% ethanol and air-dried.

R24A mutant of AgifCSP5 = R24A mutant of AgifCSP5 (Aphidius gifuensis, UniProt A0A3Q9ELG9, R44A); test: Fluorescence competitive binding assay, R24A mutant
Chain of R24A mutant of AgifCSP5 (A0A3Q9ELG9 entry or part of it R44A): as the sequence (A0A3Q9ELG9 entry or part of it) above, with R24A counted along it
Source text: as §1, §2

[1] = wild-type AgifCSP5, 1-NPN displacement, pH 7.4, read-out: IC50
[2] = wild-type AgifCSP5, 1-NPN displacement, pH 7.4, read-out: Ki

CCCCCCCCCCCCCCCCCCC [Nonadecane]
IC50 (AgifCSP5): 38.9 ± 7.44 µM
Ki (AgifCSP5): 28.8 ± 5.51 µM

C=C/C(C)=C\CC=C(C)C [(Z)-β-ocimene]
IC50 (Y75A mutant of AgifCSP5; Y75A mutant, read-out: IC50): 30.8 ± 7.87 µM
Ki (Y75A mutant of AgifCSP5; Y75A mutant, read-out: Ki): 21.9 ± 5.59 µM
Behavioral response in words (A. gifuensis adults; 100 mg/mL): significantly repelled; also recorded: repellent effects
Behavioral response in words (A. gifuensis adults; low concentrations): did not show any repelling or attracting activity
IC50 (AgifCSP5; [1]): 18 ± 2.89 µM
Ki (AgifCSP5; [2]): 13.3 ± 2.14 µM
IC50 (R24A mutant of AgifCSP5; R24A mutant, read-out: IC50): 18.2 ± 1.97 µM
Ki (R24A mutant of AgifCSP5; R24A mutant, read-out: Ki): 16.7 ± 2.73 µM

C=C1CCC2(C(C)C)CC12 (stereo not shown) [Sabinene]
IC50 (Y75A mutant of AgifCSP5): 26.2 ± 11.6 µM
Ki (Y75A mutant of AgifCSP5): 18.6 ± 8.23 µM
Behavioral response in words (A. gifuensis adults; 10 mg/mL): significantly repelled only males
Behavioral response in words (A. gifuensis adults; 100 mg/mL): significantly repelled; also recorded: repellent effects
Behavioral response in words (A. gifuensis adults; low concentrations): did not show any repelling or attracting activity
IC50 (AgifCSP5): 16.4 ± 0.94 µM
Ki (AgifCSP5): 12.1 ± 0.69 µM
IC50 (R24A mutant of AgifCSP5): 22.4 ± 14.6 µM
Ki (R24A mutant of AgifCSP5): 20.6 ± 13.4 µM

CCC/C=C/C=O [trans-2-Hexen-1-al]
IC50 (Y75A mutant of AgifCSP5): 14.6 ± 5.42 µM
Ki (Y75A mutant of AgifCSP5): 10.4 ± 3.85 µM
Behavioral response in words (A. gifuensis adults; 10 mg/mL): obviously repelled
Behavioral response in words (A. gifuensis adults; 100 mg/mL): significantly repelled; also recorded: repellent effects
Behavioral response in words (A. gifuensis adults; 100 mg/mL, listed as trans-2-hexenal): strongly repelled
Behavioral response in words (A. gifuensis adults; low concentrations): did not show any repelling or attracting activity
IC50 (AgifCSP5): 18.1 ± 1.18 µM
Ki (AgifCSP5): 13.4 ± 0.87 µM
IC50 (R24A mutant of AgifCSP5): 15 ± 8.09 µM
Ki (R24A mutant of AgifCSP5): 13.8 ± 7.43 µM

COC(=O)c1ccccc1O [Methyl salicylate]
IC50 (AgifCSP5): 20.6 ± 3.58 µM
Ki (AgifCSP5): 15.3 ± 2.65 µM

COc1cc(C(C)=O)cc(OC)c1O [Acetosyringone]
IC50 (AgifCSP5): 36.9 ± 6.77 µM
Ki (AgifCSP5): 27.3 ± 5.01 µM

C=CC(=C)CCC=C(C)C [Myrcene]
IC50 (AgifCSP5): 22.5 ± 2.51 µM
Ki (AgifCSP5): 16.7 ± 1.86 µM

CC/C=C\CCOC(C)=O [cis-3-Hexenyl acetate]
IC50 (AgifCSP5): 24.5 ± 0.49 µM
Ki (AgifCSP5): 18.2 ± 0.36 µM

C=C(C)[C@H]1CC=C(C)CC1 [(R)-(+)-Limonene]
IC50 (AgifCSP5; [1]): 25.2 ± 4.06 µM
Ki (AgifCSP5; [2]): 18.7 ± 3.01 µM

C=C(C)[C@@H]1CC=C(C)C(=O)C1 [(R)-(−)-Carvone]
IC50 (AgifCSP5): 23 ± 0.91 µM
Ki (AgifCSP5): 17 ± 0.67 µM

CC/C=C\CCO [Leaf alcohol]
IC50 (AgifCSP5; [1]): 27.9 ± 0.8 µM
Ki (AgifCSP5; [2]): 20.6 ± 0.59 µM

CCCCCCCCCCCCCCCCCO [1-Heptadecanol]
IC50 (AgifCSP5): 21.4 ± 1.07 µM
Ki (AgifCSP5): 15.8 ± 0.79 µM

CC1=CCC(C(C)(C)O)CC1 (stereo not drawn) [(+)-α-Terpineol]
IC50 (AgifCSP5; [1]): 29.4 ± 1.6 µM
Ki (AgifCSP5; [2]): 21.8 ± 1.19 µM

CCCCCCCCCCCCC [Tridecane]
IC50 (AgifCSP5): > 40 µM

O=Cc1ccccc1 [Benzaldehyde]
IC50 (Y75A mutant of AgifCSP5): > 40 µM
Behavioral response in words (A. gifuensis adults; 100 mg/mL): significantly repelled; also recorded: repellent effects; also recorded: strongly repelled
Behavioral response in words (A. gifuensis adults; low concentrations): did not show any repelling or attracting activity
IC50 (AgifCSP5): 18.2 ± 0.88 µM
Ki (AgifCSP5): 13.5 ± 0.65 µM
IC50 (R24A mutant of AgifCSP5): 17.3 ± 3.62 µM
Ki (R24A mutant of AgifCSP5): 15.8 ± 3.33 µM

CCCCCC/C=C/C=O [trans-2-Nonenal]
IC50 (Y75A mutant of AgifCSP5): > 40 µM
Behavioral response in words (A. gifuensis adults; 10 mg/mL): significantly attracted only female adults; also recorded: attractive
Behavioral response in words (A. gifuensis adults; 100 mg/mL): significantly repelled
IC50 (AgifCSP5): 16.6 ± 1.78 µM
Ki (AgifCSP5): 12.3 ± 1.31 µM
IC50 (R24A mutant of AgifCSP5): 25.9 ± 16.4 µM
Ki (R24A mutant of AgifCSP5): 23.7 ± 15 µM

CC/C=C\CC=O [cis-3-Hexenal]
IC50 (AgifCSP5): 29.8 ± 1.55 µM
Ki (AgifCSP5): 22 ± 1.15 µM

CCCCCCCCCCCCCC=O [Tetradecanal]
IC50 (AgifCSP5): 20.6 ± 2.11 µM
Ki (AgifCSP5): 15.3 ± 1.57 µM
Binding affinity of R24A compared with wild type, in words (R24A mutant of AgifCSP5; R24A mutant): increased the binding affinity

OCc1ccccc1 [Benzyl alcohol]
IC50 (AgifCSP5): 22.4 ± 4.58 µM
Ki (AgifCSP5): 16.6 ± 3.39 µM

CC1=COC(=O)C2C(C)CCC12 (stereo not shown) [Nepetalactone]
Binding affinity in words (AgifCSP5): weakly binds
IC50 (AgifCSP5; [1]): 33.8 ± 6.81 µM
Ki (AgifCSP5; [2]): 25 µM
Binding affinity in words (AgifCSP5; listed as nephelactone): weak binding affinities

CC(=O)CCC=C(C)C [6-Methyl-5-hepten-2-one]
IC50 (AgifCSP5): 24.5 ± 1.43 µM
Ki (AgifCSP5): 18.2 ± 1.06 µM

CCCCCCCCCCCCCCCCCCCCC [Heneicosane]
IC50 (AgifCSP5): 22.5 ± 2.42 µM
Ki (AgifCSP5): 16.7 ± 1.79 µM

C=C(C)[C@@H]1CC=C(C)CC1 [(S)-(−)-Limonene]
IC50 (AgifCSP5; [1]): 28.4 ± 2.84 µM
Ki (AgifCSP5; [2]): 21 ± 2.1 µM

CC1=CC[C@@H]2C[C@H]1C2(C)C [(1R)-(+)-α-Pinene]
IC50 (AgifCSP5): 22.5 ± 2.42 µM
Ki (AgifCSP5): 16.7 ± 1.79 µM

CC/C=C\CC1C(=O)CCC1CC(=O)OC (stereo not shown) [Methyl jasmonate]
IC50 (Y75A mutant of AgifCSP5): 29.7 ± 1.06 µM
Ki (Y75A mutant of AgifCSP5): 21.1 ± 0.75 µM
IC50 (AgifCSP5): 20.1 ± 1.92 µM
Ki (AgifCSP5): 14.9 ± 1.42 µM
IC50 (R24A mutant of AgifCSP5): 8.89 ± 0.95 µM
Ki (R24A mutant of AgifCSP5): 8.16 ± 0.87 µM
Binding affinity of R24A compared with wild type, in words (R24A mutant of AgifCSP5; R24A mutant): increased the binding affinity; also recorded: increased affinities

C=CC(C)(O)CCC=C(C)C (stereo not shown) [Linalool]
IC50 (AgifCSP5): 25.5 ± 3.46 µM
Ki (AgifCSP5): 18.9 ± 2.56 µM

c1ccc(Nc2cccc3ccccc23)cc1 [1-NPN, N-phenyl-1-naphthylamine, reference compound]
Kd (Y75A mutant of AgifCSP5): 3.13 µM
Kd (AgifCSP5): 3.64 µM
Kd (R24A mutant of AgifCSP5): 14.4 µM

CCC/C=C\CO [cis-2-Hexen-1-ol]
IC50 (AgifCSP5): 34.5 ± 2.09 µM
Ki (AgifCSP5): 25.6 ± 1.55 µM

CC/C=C\CCO [cis-3-Hexen-1-ol]
IC50 (AgifCSP5): 23.4 ± 5.54 µM
Ki (AgifCSP5): 17.3 ± 4.1 µM

C=CC(=C)CC/C=C(\C)CCC=C(C)C [(E)-β-Farnesene]
Binding affinity in words (AgifCSP5): weakly binds
IC50 (AgifCSP5; [1]): 25.9 ± 1.16 µM
Ki (AgifCSP5; [2]): 19.2 ± 0.86 µM
Binding affinity in words (AgifCSP5; listed as EBF): weak binding affinities

CCCC/C=C\CCO [cis-3-Octen-1-ol]
IC50 (Y75A mutant of AgifCSP5): 22.9 ± 6.68 µM
Ki (Y75A mutant of AgifCSP5): 16.3 ± 4.75 µM
Behavioral response in words (A. gifuensis adults; 10 mg/mL): significantly repelled only males
Behavioral response in words (A. gifuensis adults; 100 mg/mL): significantly repelled; also recorded: repellent effects
Behavioral response in words (A. gifuensis adults; low concentrations): did not show any repelling or attracting activity
IC50 (AgifCSP5): 17 ± 1.08 µM
Ki (AgifCSP5): 12.6 ± 0.8 µM
IC50 (R24A mutant of AgifCSP5): 18.9 ± 9.83 µM
Ki (R24A mutant of AgifCSP5): 17.4 ± 9.03 µM

CC(=O)OC/C=C(\C)CCC=C(C)C [Geranyl acetate]
IC50 (AgifCSP5): 27.3 ± 4.87 µM
Ki (AgifCSP5): 20.2 ± 3.61 µM
